# Experimental data taken from US20060270737A1, “Menthol propyleneglycol-carbonate and analogs thereof as insect pest repellents” (priority 2003, published 2006).
# Columns and labels:
# Assay type in all cases: in vivo
# [1] = tested on: Adult mosquitoes (Culex quinquefasciatus); assay: Mosquito chamber test, protection time until first bite on lotion-coated arms of human volunteers; conditions: for Protection Time: 5 wt % in lotion base, elbow to fingertips of human volunteers, time to first bite, mean ± SEM, 4 volunteers
# Method: Adult mosquitoes (Culex quinquefasciatus) were kept inside a screened chamber measuring 2 ft×2 ft×2 ft at a density of 200 mosquitoes per chamber. The mosquitoes are aged 3 to 10 days after emergence from larvae and were starved for 24 hours prior to each test. Each of the test compounds (supplied as a gift from Symrise GmbH & Co Kg, Holzminden, Germany) was added to a commercial lotion base (Cresto Laboratories, […], Philippines) and thoroughly mixed into the lotion using an electronic mixer. The resulting formulation was applied from the elbow to the tip of the fingers of human volunteers. The coated arms of the volunteers were then inserted, in turn, inside the chamber up to the elbow. The protection time was determined for each formulation as the length of time until a mosquito had taken its first bite, after which the test was terminated. The data in Table 1 show the protection time determined in this manner for the compounds tested.
# [2] = tested on: fire ants (s. invicta); assay: Fire ant bait protection test; conditions: 50% (v/v) in ethanol sprayed on peanut butter bait, 4 replicates, terminated after 5 hours
# Method: In this study, the repellent effect of racemic menthol propyleneglycol-carbonate was examined by preparing a solution of this chemical in ethanol at concentration of 50% (v/v). The solution was sprayed with a pump spray dispenser ([…] & Associates, Duarte, Calif.) to a bait composed of sugary food (in this case, peanut butter). The control was composed of ethanol alone. This study was conducted in Fort Pierce, Fla. The protection time was measured as the time when the first ant started consuming the bait. […] The experiment was terminated after 5 hours of observation. Each study group was composed of 4 replicates. In the control which was sprayed with ethanol alone, the fire ants (s. invicta) were seen on the bait within 3 minutes after the spray was applied.
# [3] = tested on: mosquitoes; assay: Standard mosquito chamber test of halloysite-entrapped and free active in aloe vera cream; conditions: 20% w/w in aloe vera cream, forearm, 3 human volunteers; in min
# Method: This study was conducted to evaluate the suitability of encapsulation or entrapment as a means of reducing the amount of racemic menthol propyleneglycol-carbonate required to produce a repellent effect and to provide a means of protecting the active material from degradation by other excipients in the formulation or from high temperatures associated with manufacturing, as in the case of impregnation of textile materials. The halloysite clay represents an example of many other suitable encapsulation materials available in the industry and is not intended as a limitation of the scope of this invention.
# Halloysite clay is a naturally derived, nontoxic, biodegradable material typically used in the manufacture of porcelain, bone china and fine china. U.S. Pat. No. 5,651,976 to Price and Gaber describes a new method of controlled release using microtubules made from halloysite clay. […] The halloysite entrapped racemic menthol propyleneglycol-carbonate used in this study was supplied as a gift from Federal Technology Group (Bozeman, Mont.), with a total entrapped active material determined at 17% of the total weight. […] Protection time was measured as the time at which the human subject experienced the first mosquito bite. […]
# [4] = tested on: stable fly or dog fly (Stomoxys calcitrans); assay: Stable flies landing on sprayed meat bait
# Method: To test the effectiveness of racemic menthol propylene glycol carbonate, a 50% solution was prepared in 95% ethanol and sprayed using a standard spray bottle. Stable flies were collected by placing a screened cage containing (Peaceful Valley Farm Supply, Grass Valley, Calif.) bait beside a horse stable one day prior to the test. Approximately 200 stable flies were collected from each cage. The test bait comprising pieces of beef was placed in an aluminum pan at the bottom of the collecting cage. The test was conducted using meat sprayed with 50% racemic menthol propyleneglycol-carbonate solution, with a control composed of meat sprayed with ethanol alone. The test was conducted in duplicate. The number of stable flies landing and feeding on the meat was counted periodically.
# [5] = tested on: mosquito; assay: Outdoor mosquito tests, protection time on exposed arms of human volunteers; conditions: outdoors from 3:00 PM, 3 human volunteers per group, test chemical 10% w/w in ointment base, ± SEM
# Method: To validate the efficacy of menthol propyleneglycol-carbonate under ambient conditions in nature, this chemical was mixed in an ointment base at 10% w/w and applied to the exposed arms of human volunteers who remained outdoors during the peak period of mosquito biting, beginning at 3:00 PM. The protection time was recorded and compared with that obtained from human volunteers using a commercially available insect repellent (OFF! Skintastic; 7% DEET) manufactured by SC Johnson & Sons, Inc. (Racine, Wis.). Control ointment consisted of Fougera ointment without any active ingredient. The protection time was determined for 3 human volunteers for each test group.
# [6] = tested on: milk termite, Coptotermes vastator; assay: Inhibition of termite infestation, weight loss of impregnated soft wood
# Method: The milk termite, Coptotermes vastator, is a pest found in tropical and sub-tropical areas. To test the efficacy of racemic menthol propyleneglycol-carbonate, this chemical was dissolved in 95% ethanol at concentration of 10% w/w and pieces of pre-weighed soft wood were immersed in the solution for 24 hours. After impregnation, the wood was allowed to dry in air to remove the ethanol which has a lower flash point. The dry wood was reweighed to determine the total amount of racemic menthol propyleneglycol-carbonate absorbed into the wood. The weight of racemic menthol propyleneglycol-carbonate absorbed was 26 milligrams per gram of wood. Controls were prepared using wood impregnated with 95% ethanol alone.
# The wood test samples were placed on top of a fallen jackfruit tree (Artocarpus heterophylla) heavily infested by termites under ambient, natural, outdoor conditions for a period of 2 months. At the end of the test period, the wood samples were cleaned of debris and termites, dried in the sun and weighed. The degree of wood preservation was determined by the amount of weight loss during the test period.
# [7] = tested on: mosquito biting activity; assay: Mosquito chamber protection time of combinations with DEET and citronella product (Natrapel); conditions: both at 10% w/w in hydrophilic ointment base, arms of 3 human volunteers
# Method: To test the effectiveness of menthol propyleneglycol-carbonate(menthol propyleneglycol-carbonate) in enhancing the effect of the known insect repellent DEET against mosquito biting activity, this study was undertaken by combining racemic menthol propyleneglycol-carbonate with DEET (purchased from Sigma-Aldrich). The two chemicals were added at 10% w/w in an Hydrophilic ointment base (E. Fougera & Co., Melville, N.Y.) and applied on the exposed arms of human volunteers. The treated arms were inserted inside a mosquito chamber and the protection time was determined. […] The recorded data represents the mean and standard error of 3 human volunteers.
# To test the effectiveness of menthol propyleneglycol-carbonate in enhancing the effect of another known mosquito repellent product, an experiment was undertaken in Which menthol propyleneglycol-carbonate was added at a concentration of 10% w/w to a citronella-based product (Natrapel) manufactured by Tender Corporation (Littleton, N.H.).
# [8] = tested on: red ant (pharaoh ant, Monomorium pharaonis); assay: Ant repellent test, impregnated filter paper barrier around table leg; conditions: mean ± SEM of 5 tests
# Method: The red ant (pharaoh ant, Monomorium pharaonis) was selected for this ant repellent test since it has a worldwide distribution and is known to be a household pest. Red ants are attracted to the smell of food. The attractant in this experiment was a piece of chocolate, which was placed on a tabletop 5 hours before the test. Within 2 hours after being released on the ground around the table, the red ants established a route from the ground up the table legs. At the 5th hour, a filter paper impregnated with racemic menthol propyleneglycol-carbonate at two concentrations was placed around the middle portion of the table leg. The test compound was dissolved in ethanol and impregnated into a pre-weighed, 2 inch by 7 inch piece of filter paper. After complete evaporation of ethanol, the filter paper was weighed and the final weight of the test compound was determined per cm^2 of the filter paper. The control employed was the same filter paper soaked with ethanol only. The time for the first ant to cross the filter paper barrier was determined.
compound,measurement,setting,value
"CC1CCC(C(C)C)C(O)C1 (stereo not shown) [1-menthol, 1-5-methyl-2-isopropyl cyclohexanol, reference compound]",Protection Time,[1],30 ± 9 min
"CC1CCC(C(C)C)C(OCC(O)CO)C1 (stereo not shown) [menthoxy-propane-1,2-diol]",Protection Time,[1],68 ± 17 min
"C=C(C)C1CCC(C)CC1O (single isomer, unassigned; (-)) [(−)-isopulegol, 5-methyl-2-(1-methylethenyl) cyclohexanol, reference compound]",Protection Time,[1],56 ± 7 min
isopulegol propyleneglycol-carbonate,Protection Time,[1],152 ± 36 min
CC1CCC(C(C)C)C(OC(=O)OCCCCCCCCCO)C1 (stereo not shown) [menthyl-9-hydroxynonyl-carbonate],Protection Time,[1],79 ± 14 min
CC(O)COC(=O)OC1CC(C)CCC1C(C)C (racemic) [racemic menthol propyleneglycol-carbonate],Protection Time,[2],at least 5 hours
same,Protection Time,[2]; listed as Racemic menthol propyleneglycol-carbonate,>5 h
same,PROTECTION TIME (Mean ± SEM),[3],93 ± 6
same,time by which the spray lost its efficacy,[4]; from the initial single application of 50% spray,≤ 9 h
same,time the spray remained very effective,[4]; single application of 50% spray on meat,at least 5 hours
same,Protection Time,[5],227 ± 19 min
same,termite consumption of the wood,"[6]; impregnated wood, 2 months",completely prevented from consuming the wood
same,Percent of weight loss,"[6]; soft wood impregnated from 10% w/w ethanol solution (26 mg per gram of wood), 2 months outdoors on termite-infested tree",0.8 ± 0.4%
same,protection time / repellent effect of combination with DEET versus either compound alone (FIG. 3),[7],greater protection time
same,Protection Time,[1],283 ± 17 min
same,effectiveness in preventing mosquito bites relative to menthol or isopulegol,"[1]; from Table I protection times, 5 wt % in lotion",almost nine times more effective
same,inhibitory effect on mosquito bite (FIG. 1),[1]; lotion containing various concentrations,dose dependent manner
same,Time to cross barrier,[8]; 15 mg/cm^2 on filter paper,63 ± 18 min
same,Time to cross barrier,[8]; 30 mg/cm^2 on filter paper,760 ± 76 min
